Assay results from ChEMBL document CHEMBL3421577, “Discovery and biological evaluation of tetrahydrothieno[2,3-c]pyridine derivatives as selective metabotropic glutamate receptor 1 antagonists for the potential treatment of neuropathic pain” (Eur J Med Chem, 2015).
The source made the active and inactive calls. No cut-off for these calls is given here.

How the values were obtained:
[1] = target: T1, Metabotropic glutamate receptor 1 (Homo sapiens, UniProt Q13255); assay: Antagonist activity at human mGluR1 expressed in human Chem-3 cells assessed as inhibition of L-glutamate-induced calcium release at 10 uM by calcium-5 reagent-based fluorescence assay relative to control; type: functional, cell-based
[2] = target: T2, Metabotropic glutamate receptor 5 (Homo sapiens, UniProt P41594); assay: Antagonist activity at human mGluR5 expressed in human embryonic kidney cells assessed as inhibition of L-glutamate-induced calcium release at 10 uM by calcium-5 reagent-based fluorescence assay relative to control; type: functional, cell-based
Target sequence in this assay (P41594 21-1212 limits assumed): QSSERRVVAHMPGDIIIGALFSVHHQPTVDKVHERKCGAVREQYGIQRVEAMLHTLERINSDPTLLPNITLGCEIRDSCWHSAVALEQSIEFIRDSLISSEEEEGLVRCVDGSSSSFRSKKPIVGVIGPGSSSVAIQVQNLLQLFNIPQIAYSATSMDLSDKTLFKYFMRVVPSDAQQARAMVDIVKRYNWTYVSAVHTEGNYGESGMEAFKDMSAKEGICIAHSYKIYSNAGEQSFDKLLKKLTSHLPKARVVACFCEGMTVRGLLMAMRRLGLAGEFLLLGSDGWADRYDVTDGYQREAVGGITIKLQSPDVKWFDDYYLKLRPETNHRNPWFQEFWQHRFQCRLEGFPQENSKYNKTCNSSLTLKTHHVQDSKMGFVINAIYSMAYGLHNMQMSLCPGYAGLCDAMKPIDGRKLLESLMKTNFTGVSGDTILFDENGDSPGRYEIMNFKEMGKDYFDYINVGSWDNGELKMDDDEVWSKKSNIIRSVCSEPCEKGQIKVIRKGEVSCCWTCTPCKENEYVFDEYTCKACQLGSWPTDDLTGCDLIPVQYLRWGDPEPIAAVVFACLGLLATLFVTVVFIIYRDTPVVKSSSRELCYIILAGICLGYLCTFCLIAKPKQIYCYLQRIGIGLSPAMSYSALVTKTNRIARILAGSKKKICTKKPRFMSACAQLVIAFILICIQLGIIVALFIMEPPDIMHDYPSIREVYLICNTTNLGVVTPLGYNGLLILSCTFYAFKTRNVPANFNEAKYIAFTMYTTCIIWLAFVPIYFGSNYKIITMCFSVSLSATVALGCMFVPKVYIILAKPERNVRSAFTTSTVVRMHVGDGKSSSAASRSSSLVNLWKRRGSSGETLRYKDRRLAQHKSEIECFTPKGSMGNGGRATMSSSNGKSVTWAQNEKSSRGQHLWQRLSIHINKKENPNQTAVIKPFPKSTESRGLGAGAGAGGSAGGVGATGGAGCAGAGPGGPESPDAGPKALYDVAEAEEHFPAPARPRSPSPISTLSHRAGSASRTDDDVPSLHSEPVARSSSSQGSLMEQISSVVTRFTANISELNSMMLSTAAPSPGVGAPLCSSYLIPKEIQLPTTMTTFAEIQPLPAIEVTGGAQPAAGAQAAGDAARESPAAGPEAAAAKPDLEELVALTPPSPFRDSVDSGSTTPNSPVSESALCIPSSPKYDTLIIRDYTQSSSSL

[3] = target: T1, Metabotropic glutamate receptor 1; assay: Antagonist activity at human mGluR1 expressed in human Chem-3 cells assessed as inhibition of L-glutamate-induced calcium release by calcium-5 reagent-based fluorescence assay; type: functional, cell-based
Target sequence in this assay (Q13255 whole entry): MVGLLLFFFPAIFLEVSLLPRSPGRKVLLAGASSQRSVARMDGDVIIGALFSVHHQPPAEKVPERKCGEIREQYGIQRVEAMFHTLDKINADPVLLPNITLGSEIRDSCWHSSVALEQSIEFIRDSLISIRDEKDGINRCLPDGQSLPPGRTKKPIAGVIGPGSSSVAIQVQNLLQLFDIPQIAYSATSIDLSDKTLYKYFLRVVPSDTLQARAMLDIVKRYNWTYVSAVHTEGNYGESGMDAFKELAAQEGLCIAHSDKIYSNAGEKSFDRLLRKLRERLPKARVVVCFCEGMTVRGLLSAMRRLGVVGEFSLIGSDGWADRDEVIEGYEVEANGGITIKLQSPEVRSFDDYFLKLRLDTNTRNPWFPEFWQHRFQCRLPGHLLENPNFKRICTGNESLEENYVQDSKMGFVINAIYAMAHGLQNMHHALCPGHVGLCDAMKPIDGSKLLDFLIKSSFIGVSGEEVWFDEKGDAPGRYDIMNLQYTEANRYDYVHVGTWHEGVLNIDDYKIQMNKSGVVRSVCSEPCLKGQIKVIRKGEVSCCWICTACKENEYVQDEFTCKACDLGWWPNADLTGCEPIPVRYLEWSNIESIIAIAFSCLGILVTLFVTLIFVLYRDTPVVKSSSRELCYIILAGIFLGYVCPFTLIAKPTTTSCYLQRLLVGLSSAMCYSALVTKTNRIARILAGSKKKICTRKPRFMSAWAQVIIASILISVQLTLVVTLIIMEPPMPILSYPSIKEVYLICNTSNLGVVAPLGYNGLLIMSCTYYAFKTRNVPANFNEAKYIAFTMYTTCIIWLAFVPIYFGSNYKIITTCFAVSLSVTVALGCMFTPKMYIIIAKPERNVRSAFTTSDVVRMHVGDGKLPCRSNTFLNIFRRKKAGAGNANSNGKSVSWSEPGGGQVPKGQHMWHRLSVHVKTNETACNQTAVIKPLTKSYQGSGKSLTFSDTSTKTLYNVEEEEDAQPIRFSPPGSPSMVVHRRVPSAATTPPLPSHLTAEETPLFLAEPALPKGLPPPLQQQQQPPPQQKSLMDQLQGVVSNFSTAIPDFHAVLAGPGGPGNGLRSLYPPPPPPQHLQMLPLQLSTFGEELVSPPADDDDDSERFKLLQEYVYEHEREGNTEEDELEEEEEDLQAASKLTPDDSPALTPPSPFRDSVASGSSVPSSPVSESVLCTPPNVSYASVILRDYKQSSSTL

[4] = target: T3, CYP1A2 (Homo sapiens, UniProt P05177); assay: Inhibition of recombinant human CYP1A2 assessed as remaining activity at 10 uM preincubated for 5 mins followed by substrate and NADP addition measured after 20 mins by fluorescence assay relative to control; type: ADME; conditions: read-out: Activity
T3 sequence (P05177 whole entry): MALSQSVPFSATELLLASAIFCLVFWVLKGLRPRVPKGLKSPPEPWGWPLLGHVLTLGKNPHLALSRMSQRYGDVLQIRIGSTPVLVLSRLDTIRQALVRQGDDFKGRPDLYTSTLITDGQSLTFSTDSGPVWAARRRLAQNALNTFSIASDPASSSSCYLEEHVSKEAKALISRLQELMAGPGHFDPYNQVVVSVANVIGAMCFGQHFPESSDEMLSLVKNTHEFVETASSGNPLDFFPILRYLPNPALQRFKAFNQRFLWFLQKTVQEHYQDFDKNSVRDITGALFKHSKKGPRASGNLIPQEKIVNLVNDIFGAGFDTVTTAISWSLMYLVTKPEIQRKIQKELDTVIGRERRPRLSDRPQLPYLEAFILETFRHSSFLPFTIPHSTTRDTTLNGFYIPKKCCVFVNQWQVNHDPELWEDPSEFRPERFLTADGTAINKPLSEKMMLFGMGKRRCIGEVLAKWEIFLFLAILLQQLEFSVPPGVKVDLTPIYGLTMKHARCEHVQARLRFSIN

[5] = target: CYP2D6 (Homo sapiens, UniProt P10635); assay: Inhibition of recombinant human CYP2D6 assessed as remaining activity at 10 uM preincubated for 5 mins followed by substrate and NADP addition measured after 20 mins by fluorescence assay relative to control; type: ADME; conditions: read-out: Activity
[6] = target: CYP2C9 (Homo sapiens, UniProt P11712); assay: Inhibition of recombinant human CYP2C9 assessed as remaining activity at 10 uM preincubated for 5 mins followed by substrate and NADP addition measured after 20 mins by fluorescence assay relative to control; type: ADME; conditions: read-out: Activity
CYP2C9, sequence (P11712 whole entry): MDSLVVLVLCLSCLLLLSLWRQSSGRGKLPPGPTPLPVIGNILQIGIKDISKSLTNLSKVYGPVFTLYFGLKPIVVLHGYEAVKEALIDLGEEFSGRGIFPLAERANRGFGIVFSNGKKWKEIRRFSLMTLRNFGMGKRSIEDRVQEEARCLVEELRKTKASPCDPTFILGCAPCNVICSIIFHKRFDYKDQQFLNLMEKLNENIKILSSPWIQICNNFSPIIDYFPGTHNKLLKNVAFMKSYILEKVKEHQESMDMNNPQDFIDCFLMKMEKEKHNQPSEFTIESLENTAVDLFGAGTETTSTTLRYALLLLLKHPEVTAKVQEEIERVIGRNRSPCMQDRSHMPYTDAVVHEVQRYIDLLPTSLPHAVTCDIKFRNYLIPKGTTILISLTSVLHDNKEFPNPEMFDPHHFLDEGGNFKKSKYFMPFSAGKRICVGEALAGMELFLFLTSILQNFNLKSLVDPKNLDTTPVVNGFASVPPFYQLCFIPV

[7] = target: CYP3A4 (Homo sapiens, UniProt P08684); assay: Inhibition of recombinant human CYP3A4 assessed as remaining activity at 10 uM preincubated for 5 mins followed by substrate and NADP addition measured after 20 mins by fluorescence assay relative to control; type: ADME; conditions: read-out: Activity
CYP3A4, sequence (P08684 whole entry): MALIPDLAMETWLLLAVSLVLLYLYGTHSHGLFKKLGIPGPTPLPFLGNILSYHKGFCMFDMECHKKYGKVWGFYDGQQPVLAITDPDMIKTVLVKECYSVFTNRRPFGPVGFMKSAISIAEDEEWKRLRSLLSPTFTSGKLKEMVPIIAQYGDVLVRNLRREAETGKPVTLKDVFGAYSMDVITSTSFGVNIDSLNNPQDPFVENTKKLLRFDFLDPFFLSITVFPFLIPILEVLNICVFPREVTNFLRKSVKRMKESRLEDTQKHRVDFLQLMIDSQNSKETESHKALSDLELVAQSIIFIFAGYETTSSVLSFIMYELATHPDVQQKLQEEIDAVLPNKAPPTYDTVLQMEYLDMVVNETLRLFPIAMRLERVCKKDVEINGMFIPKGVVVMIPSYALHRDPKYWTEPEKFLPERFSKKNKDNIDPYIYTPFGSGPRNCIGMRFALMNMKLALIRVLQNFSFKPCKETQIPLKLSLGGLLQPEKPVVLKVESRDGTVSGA

[8] = target: CYP2C19 (Homo sapiens, UniProt P33261); assay: Inhibition of recombinant human CYP2C19 assessed as remaining activity at 10 uM preincubated for 5 mins followed by substrate and NADP addition measured after 20 mins by fluorescence assay relative to control; type: ADME; conditions: read-out: Activity
CYP2C19, sequence (P33261 whole entry): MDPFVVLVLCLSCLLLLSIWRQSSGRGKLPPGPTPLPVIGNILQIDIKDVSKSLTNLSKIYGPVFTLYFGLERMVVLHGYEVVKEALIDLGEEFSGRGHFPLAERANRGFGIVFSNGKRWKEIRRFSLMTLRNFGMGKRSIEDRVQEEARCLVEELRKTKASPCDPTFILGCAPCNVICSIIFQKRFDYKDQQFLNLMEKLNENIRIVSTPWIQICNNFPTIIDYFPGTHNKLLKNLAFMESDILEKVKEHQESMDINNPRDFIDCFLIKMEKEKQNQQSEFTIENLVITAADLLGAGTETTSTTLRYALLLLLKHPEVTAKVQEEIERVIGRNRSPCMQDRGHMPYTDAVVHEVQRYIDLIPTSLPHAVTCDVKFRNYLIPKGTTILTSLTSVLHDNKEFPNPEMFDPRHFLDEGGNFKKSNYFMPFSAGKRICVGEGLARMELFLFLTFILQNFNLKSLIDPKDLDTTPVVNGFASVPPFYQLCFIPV

[9] = Metabolic stability in human liver microsomes assessed as compound remaining at 1 uM after 30 mins by LC-MS/MS analysis in presence of NADPH; type: ADME; conditions: read-out: Stability
[10] = test system: Rattus norvegicus; assay: Analgesic activity in rat spinal nerve ligation model of neuropathic pain assessed as recovery from mechanical allodynia at 100 mg/kg, po administered on day 14 post ligation surgery measured after 3 hrs relative to control; type: functional
[11] = test system: Rattus norvegicus; assay: Analgesic activity in rat spinal nerve ligation model of neuropathic pain assessed as recovery from cold allodynia at 100 mg/kg, po administered on day 14 post ligation surgery measured after 1 hr relative to control; type: functional
[12] = target: T2, Metabotropic glutamate receptor 5; assay: Antagonist activity at human mGluR5 expressed in human embryonic kidney cells assessed as inhibition of L-glutamate-induced calcium release by calcium-5 reagent-based fluorescence assay; type: functional, cell-based
Target sequence in this assay (P41594 whole entry): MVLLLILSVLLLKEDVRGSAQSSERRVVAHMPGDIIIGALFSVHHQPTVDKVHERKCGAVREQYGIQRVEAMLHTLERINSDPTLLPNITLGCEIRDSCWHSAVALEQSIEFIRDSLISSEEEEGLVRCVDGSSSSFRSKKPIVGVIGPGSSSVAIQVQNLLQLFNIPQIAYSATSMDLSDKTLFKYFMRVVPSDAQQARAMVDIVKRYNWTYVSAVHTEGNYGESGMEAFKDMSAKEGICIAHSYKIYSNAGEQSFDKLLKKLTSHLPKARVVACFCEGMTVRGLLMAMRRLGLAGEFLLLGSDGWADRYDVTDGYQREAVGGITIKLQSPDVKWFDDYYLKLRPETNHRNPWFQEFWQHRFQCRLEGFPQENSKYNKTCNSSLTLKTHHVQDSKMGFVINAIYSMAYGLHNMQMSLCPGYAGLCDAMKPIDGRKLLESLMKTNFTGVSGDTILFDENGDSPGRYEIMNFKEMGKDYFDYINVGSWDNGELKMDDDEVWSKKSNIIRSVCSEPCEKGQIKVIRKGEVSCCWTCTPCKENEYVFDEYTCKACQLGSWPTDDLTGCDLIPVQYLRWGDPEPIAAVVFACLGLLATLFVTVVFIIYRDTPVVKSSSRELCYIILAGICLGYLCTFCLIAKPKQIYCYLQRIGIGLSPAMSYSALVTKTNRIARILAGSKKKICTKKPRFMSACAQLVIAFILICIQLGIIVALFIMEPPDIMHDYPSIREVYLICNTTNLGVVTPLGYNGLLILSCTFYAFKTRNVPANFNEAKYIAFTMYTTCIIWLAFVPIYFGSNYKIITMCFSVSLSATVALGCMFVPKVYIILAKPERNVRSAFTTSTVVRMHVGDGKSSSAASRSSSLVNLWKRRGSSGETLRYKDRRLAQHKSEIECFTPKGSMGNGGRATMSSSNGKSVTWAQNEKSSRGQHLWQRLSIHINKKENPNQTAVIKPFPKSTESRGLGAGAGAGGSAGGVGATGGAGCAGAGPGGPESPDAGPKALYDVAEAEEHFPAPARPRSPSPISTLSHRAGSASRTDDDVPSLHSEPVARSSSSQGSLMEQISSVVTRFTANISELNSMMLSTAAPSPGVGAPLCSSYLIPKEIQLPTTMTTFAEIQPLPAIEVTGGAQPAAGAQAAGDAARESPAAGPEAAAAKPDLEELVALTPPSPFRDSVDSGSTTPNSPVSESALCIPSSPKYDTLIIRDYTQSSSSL

| Compound | inhibition [1] [%] | inhibition [2] [%] | IC50 [3] [nM] | also measured |
| --- | --- | --- | --- | --- |
| N#Cc1c(NCc2cccc(F)c2)sc2c1CCN(C(=O)c1ccc(Cl)cc1)C2 | 41.2 | 60 | – | – |
| N#Cc1c(NCc2ccccc2)sc2c1CCN(C(=O)c1ccc(F)cc1)C2 | 91.5 | 26.1 | 600 | activity at 20 min, 10 µM [4]: 58.1%; activity at 20 min, 10 µM [5]: 42%; activity at 20 min, 10 µM [6]: 5.48%; activity at 20 min, 10 µM [7]: 20%; activity at 20 min, 10 µM [8]: 9.94%; remaining at 0.5 h, 1 µM [9]: 49.4%; Activity [10]: inactive; Activity [11]: Active |
| N#Cc1c(NCc2cccc(F)c2)sc2c1CCN(C(=O)c1ccccc1)C2 | 63.9 | 44.2 | 5310 | – |
| N#Cc1c(NCc2cccc(F)c2)sc2c1CCN(C(=O)c1ccc(F)cc1)C2 | 82 | 36.5 | 2380 | – |
| Cc1cc(C(=O)N2CCc3c(sc(NC(=O)c4ccccc4)c3C#N)C2)[nH]n1 | 8.51 | 27.8 | – | – |
| Cc1cc(C(=O)N2CCc3c(sc(NC(=O)c4ccc(F)cc4)c3C#N)C2)[nH]n1 | 31 | 13.7 | – | – |
| COc1ccc(C(=O)Nc2sc3c(c2C#N)CCN(C(=O)c2cc(C)n[nH]2)C3)cc1 | -9.58 | 28.3 | – | – |
| CC(C)c1cc(C(=O)N2CCc3c(sc(NCc4ccccc4)c3C#N)C2)[nH]n1 | 54.4 | 8.89 | 43200 | – |
| Cc1ccc(C(=O)N2CCc3c(sc(NCc4ccccc4)c3C#N)C2)cc1 | 69.7 | 24.3 | 4720 | – |
| N#Cc1c(NCc2ccc(F)cc2)sc2c1CCN(C(=O)c1ccn[nH]1)C2 | 91.4 | 13.5 | 2030 | – |
| COc1ccc(C(=O)N2CCc3c(sc(NCc4ccc(C#N)cc4)c3C#N)C2)cc1 | 10.9 | 41.5 | – | – |
| CC(C)c1cc(C(=O)N2CCc3c(sc(NCc4ccc(Cl)cc4)c3C#N)C2)[nH]n1 | 46.3 | 24.8 | – | – |
| CC(C)c1cc(C(=O)N2CCc3c(sc(NC(=O)c4ccc(F)cc4)c3C#N)C2)[nH]n1 | 28.5 | -2.3 | – | – |
| CC(C)c1cc(C(=O)N2CCc3c(sc(NC(=O)c4ccccc4)c3C#N)C2)[nH]n1 | 14.6 | 39.3 | – | – |
| Cc1cc(C(=O)N2CCc3c(sc(NCc4ccc(Cl)cc4)c3C#N)C2)[nH]n1 | 40.9 | 31.2 | – | – |
| Cc1ccc(C(=O)N2CCc3c(sc(NCc4ccc(F)cc4)c3C#N)C2)cc1 | 46.6 | 37.6 | – | – |
| COc1cccc(CNc2sc3c(c2C#N)CCN(C(=O)c2ccc(F)cc2)C3)c1 | 67.5 | 31.1 | 3090 | activity at 20 min, 10 µM [4]: 78.5%; activity at 20 min, 10 µM [5]: 35%; activity at 20 min, 10 µM [6]: 6.46%; activity at 20 min, 10 µM [7]: 12.5%; activity at 20 min, 10 µM [8]: 7.99%; remaining at 0.5 h, 1 µM [9]: 12.1% |
| N#Cc1c(NCc2ccccc2)sc2c1CCN(C(=O)c1ccn[nH]1)C2 | 94.9 | 4.48 | 1090 | – |

| Compound | inhibition [1] [%] | inhibition [2] [%] | IC50 [3] [nM] | also measured |
| --- | --- | --- | --- | --- |
| N#Cc1c(NCc2ccc(Cl)cc2)sc2c1CCN(C(=O)c1ccc(F)cc1)C2 | 35.2 | 25.3 | – | – |
| N#Cc1c(NCc2ccc(F)cc2)sc2c1CCN(C(=O)c1ccc(F)cc1)C2 | 73.1 | 22.3 | – | – |
| Cc1cc(C(=O)N2CCc3c(sc(NCc4ccc(F)cc4)c3C#N)C2)[nH]n1 | 84.2 | 37.6 | 2450 | – |
| COc1cccc(CNc2sc3c(c2C#N)CCN(C(=O)c2cccc(F)c2)C3)c1 | 15.5 | 33.2 | – | – |
| COc1ccc(C(=O)N2CCc3c(sc(NCc4cccc(F)c4)c3C#N)C2)cc1 | 42.8 | 69 | – | IC50 [12]: 4730 nM |
| COc1ccc(C(=O)Nc2sc3c(c2C#N)CCN(C(=O)c2cc(C(C)C)n[nH]2)C3)cc1 | -6.42 | 63.1 | – | IC50 [12]: 4830 nM |
| N#Cc1c(NCc2ccccc2)sc2c1CCN(C(=O)c1cccc(F)c1)C2 | 79 | 29.8 | 2900 | – |
| N#Cc1c(NCc2ccc(F)cc2)sc2c1CCN(C(=O)c1ccccc1)C2 | 77.8 | 26.4 | 1810 | activity at 20 min, 10 µM [4]: 52%; activity at 20 min, 10 µM [5]: 36.4%; activity at 20 min, 10 µM [6]: 5.48%; activity at 20 min, 10 µM [7]: 24.2%; activity at 20 min, 10 µM [8]: 3.81%; remaining at 0.5 h, 1 µM [9]: 33.4% |
| Cc1cccc(C(=O)N2CCc3c(sc(NCc4ccccc4)c3C#N)C2)c1 | 73.5 | 8.8 | 3140 | activity at 20 min, 10 µM [4]: 42.6%; activity at 20 min, 10 µM [5]: 35.7%; activity at 20 min, 10 µM [6]: 4.33%; activity at 20 min, 10 µM [7]: 9.36%; activity at 20 min, 10 µM [8]: 4.57%; remaining at 0.5 h, 1 µM [9]: 16.4% |
| CC(C)c1cc(C(=O)N2CCc3c(sc(NCc4ccc(F)cc4)c3C#N)C2)[nH]n1 | 40.7 | 43.1 | – | – |
| CC(C)c1cc(C(=O)N2CCc3c(sc(NC(=O)c4ccc(Cl)cc4)c3C#N)C2)[nH]n1 | 62.5 | -4.28 | 12200 | – |
| Cc1ccc(C(=O)N2CCc3c(sc(NCc4cccc(F)c4)c3C#N)C2)cc1 | 43.9 | 54.8 | – | – |
| N#Cc1c(NCc2ccccc2)sc2c1CCN(C(=O)c1ccccc1)C2 | 66.4 | 46 | 2820 | – |
| NCC1(CC(=O)O)CCCCC1 [GABAPENTIN] | – | – | – | Activity [10]: 80%; Activity [11]: 40% |
| N#Cc1ccc(CNc2sc3c(c2C#N)CCN(C(=O)c2ccccc2)C3)cc1 | 36.8 | 3.16 | – | – |
| Cc1cc(C(=O)N2CCc3c(sc(NC(=O)c4ccc(Cl)cc4)c3C#N)C2)[nH]n1 | 42.2 | -2.15 | – | – |
| N#Cc1c(NCc2ccccc2)sc2c1CCN(C(=O)c1cnccc1F)C2 | 90.1 | 16 | 1240 | – |
| COc1ccc(C(=O)N2CCc3c(sc(NCc4ccc(F)cc4)c3C#N)C2)cc1 | 47.7 | 68 | – | IC50 [12]: 1430 nM |
